Legend:
[1] = Stabilizer solution optimizing studies (turbidity, miscibility, pH, MP in solution); assay type: physicochemical
Method: Since the BA concentration in the stabilizer solution is limited due to patient safety concerns, to increase the preservative effectiveness duration, the MP concentration in the stabilizer solution could be increased to 0.1%. However, when the concentrated stabilizer solution is presented as a 20 mL additive volume, this level of MP leads to high solution pH (≥9.0), solution turbidity, and PS80 immiscibility. To address these issues, a series of stabilizer solution optimizing studies were performed to determine the final concentrated stabilizer solution.
The first study explored lower levels of PS80 in the concentrated stabilizer solution to determine if the turbidity and solution instability or immiscibility issues can be addressed. […] However, this concentration of PS80 remains turbid at room temperature. A subsequent study evaluating larger concentrated stabilizer solution additive volume presentations was performed to determine if lowering the levels of all excipients in the concentrated stabilizer solution helps address the high turbidity issue. […] To determine optimal concentrated stabilizer solution pH, studies varying the formulation buffer strength were performed. […] As a result, variable concentrations of MP were evaluated in a subsequent study. […] Based on the results of the previous PS80 and MP studies, a final study was performed evaluating variable concentrations of MP and PS80 to determine the optimal combination that addresses solution turbidity at an acceptable pH. […] When 40 mL of this stabilizer solution is diluted in a 250 mL saline bag, the resulting dosing solution will contain 0.17% BA and 0.055% MP. […] As a result, the preservative effectiveness of the re-formulated Stabilizer 2 solution having final preservative levels of 0.17% BA and 0.05% MP in the dosing solution, was examined through microbial challenge testing of USP recommended microbes.
However, BA levels above 15.5 mg/mL result in solution instability or immiscibility and MP levels above 5.3 mg/mL produce a final solution above pH 8.4. […]

[2] = target: T1, soluble recombinant human IL-3 receptor alpha (rhIL3Rα) (Homo sapiens, UniProt P26951); experiment: ELISA (rhIL3Rα) DART-A quantitation assay (concentration, protein recovery); details: 0.05 mg/mL PS80 or 0.1 mg/mL PS80
T1 construct: soluble recombinant human IL-3 receptor alpha (rhIL3Rα)
T1 sequence (P26951 19-305 limits assumed): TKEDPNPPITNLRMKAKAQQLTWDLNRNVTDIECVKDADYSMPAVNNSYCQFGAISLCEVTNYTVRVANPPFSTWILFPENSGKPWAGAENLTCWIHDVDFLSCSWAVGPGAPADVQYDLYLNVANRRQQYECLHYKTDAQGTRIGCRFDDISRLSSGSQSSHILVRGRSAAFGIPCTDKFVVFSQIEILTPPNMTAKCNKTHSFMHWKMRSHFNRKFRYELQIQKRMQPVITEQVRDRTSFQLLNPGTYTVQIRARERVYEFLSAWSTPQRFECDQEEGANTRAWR
Method: In brief, the assay plate was coated with soluble recombinant human IL-3 receptor alpha (rhIL3Rα) overnight. […] After addition of MSD Read Buffer, the plate was inserted into the Sector Imager 2400 Plate Reader. When a voltage was applied to the plate electrodes, the bound Sulfo-TAG label produces an ECL signal, which was captured by the plate reader. A quantitative measure of the ECL signal emitted by each well was recorded, and the ECL counts emitted by the standard calibrators were used to generate a standard curve using a 4-parameter logistic (4PL) fit.

[3] = RP-HPLC for BA and MP recovery (preservative concentration); assay type: physicochemical; details: for Tested Benzyl Alcohol Concentration: Study 2, diluted DART-A DP formulation in cassette 25° C., 100 rpm, 5000 ng/mL, expected 0.86%
Method: Preservative recovery was measured using Reverse Phase (RP) HPLC analysis. The RP-HPLC configuration included a photodiode array (PDA) detector (λBA=254 nm, λMP=340 nm), a mobile phase composition of 40% acetonitrile, 0.1% formic acid and a Zorbax® 5 μm Eclipse-XDB-C18 80 Å liquid chromatography column. Samples were diluted ten-fold. The column temperature was set to 40±5° C. 50 μL of solution was injected for each 10-minute run.

[4] = test system: USP recommended microbes; experiment: Microbial challenge testing, statements on several microbes together; assay type: cell-based
Method: Microbial challenge testing was performed to evaluate the preservative effect of stabilizer solutions containing ≤0.17% BA and ≤0.1% MP. Microbial challenge testing was chosen as it more accurately represents the proposed dose preparation and dilution scheme where doses will be prepared aseptically and the number of microbes that may be introduced to the solution would be low. Microbial challenge testing was performed in two stages. The first stage determined the effective concentrations of BA and MP while the second stage tested the final formulation according to USP specifications. Each stage is described in detail below.
To confirm the anti-microbial properties of Stabilizer 2 once diluted in saline (i.e., in the dosing solution), microbial growth testing was performed by SGS Life Sciences. The USP recommended microbes required for testing are listed below in Table 26.
A high dosing solution (150 kg patient at 1,000 ng/kg cohort) was prepared to represent the maximum preservative dilution. […] Microbial growth studies were performed on all five USP recommended microbes with a target concentration between 10 and 100 CFU/mL. The microbial growth results are listed below in Table 27.
Microbial Challenge Testing was performed to evaluate the preservative effect of stabilizer solutions. In short, high concentration (1250 ng/mL) dosing solution was prepared according Table 36. USP<51> recommended microbes were introduced to the solution with a target concertation between 10 and 100 CFU/mL. Solutions were stored at the USP<51> recommended temperature for each microbe and at predetermined time points, samples were collected. Testing of samples was performed according to USP<1227>. The threshold for no microbial growth was established to be not greater than 0.5 log colony count compared to the initial concentration of microbe.

Question: With `COC(=O)c1ccc(O)cc1` [MP, methylparaben] as the compound, how does the “share of the target MP concentration that stays in solution” value ([1]; concentrated stabilizer solution, pH≤8.0) read?
Answer: Its value is 30-50%.

Question: And the “MP level that produces a final solution above pH 8.4” value ([1]; stabilizer solution)?
Answer: Its value is “above 5.3 mg/mL”.

Question: With polysorbate 80 [PS80] as the compound, how does the “blocking activity (inhibition of DART-A adsorption)” value [2] read?
Answer: Its value is “sufficient blocking activity”.

Question: With `OCc1ccccc1` [Benzyl Alcohol, benzyl alcohol] as the compound, how does the BA content ([3]; Study 2, 25° C., 100 rpm shaking for up to 72 hours) read?
Answer: Its BA content is “at least 0.75%”.

Question: And the “Tested Benzyl Alcohol Concentration” value ([3]; T = 0)?
Answer: The value was 0.91%.

Question: And the “Tested Benzyl Alcohol Concentration” value ([3]; T = 24 hours)?
Answer: Its value is 0.78%.

Question: What about the “Tested Benzyl Alcohol Concentration” value ([3]; T = 48 hours) of the same compound?
Answer: The value was 0.76%.

Question: What about the “Tested Benzyl Alcohol Concentration” value ([3]; T = 72 hours) of the same compound?
Answer: Its value is 0.78%.

Question: And the antimicrobial property ([4]; BA 0.17% alone (single pump target concentration))?
Answer: Its antimicrobial property is “does not inhibit growth”.

Question: What about the antimicrobial property ([4]; BA 0.9% (concentration in Stabilizer 1), P. aeruginosa and C. albicans) of the same compound?
Answer: The antimicrobial property was “both bactericidal and fungicidal”.

Question: And the “BA concentration that provided sufficient anti-microbial activity” value ([4]; previous study)?
Answer: Its value is 0.61%.

Question: What about the “BA level that results in solution instability or immiscibility” value ([1]; stabilizer solution) of the same compound?
Answer: Its value is “above 15.5 mg/mL”.

Reference: patent US20220323583A1, “Pharmaceutical Formulations of Bi-Specific Diabodies and Use of the Same” (MacroGenics, Inc., priority 2019, published 2022)
